Assays:
[1] = Fluorescence emission of myricetin derivatives (fluorimetry); type: physicochemical; conditions: 2.5 μM in ethanol (KB861 in THF); for λmax (nm): fluorescence emission
Procedure: All the KBX compounds and Myricetin were prepared for analysis of their fluorescent properties (Table 1) using ethanol as the solvent, with the exception of KB861 which used tetrahydrofuran (THF). All measurements were taken at a compound concentration of 2.5 μM.

Caco-2 cells [2] = experiment: Probe fluorescence in menadione stressed versus healthy Caco-2 cells (fluorescence microscopy); type: cell-based, human; conditions: for Effect of menadione concentration on intracellular fluorescence: Caco-2, 1, 10 and 20 μM menadione; for Decrease in fluorescence in stressed cells compared to healthy cells: confluent Caco-2, menadione stress, 20 μM probe; for Fluorescence in menadione exposed cultures relative to control non-stressed cultures: pre-confluent, proliferating Caco-2 cultures
Procedure: Initially, confluent Caco-2 cells were placed under stress using menadione then incubated with 20 μM KB861 for 30 minutes. The fluorescence of KB861 in stressed cells was then compared to that of KB861 in healthy cells using fluorescence microscopy (FIG. 5).
Confluent Caco-2 cells were placed under stress using Menadione then incubated with 20 μM KB474 for 1 minute (FIG. 6) and 15 minutes (FIG. 7). The fluorescence of the compound in the stressed cells was then compared to its fluorescence in healthy Caco-2 cells.
Pre-confluent, proliferating Caco-2 cultures were also exposed to menadione prior to staining with KB861 or KB474.
The effect of menadione concentration on the intracellular fluorescence of compound KB861 and KB474 was also investigated.

Caco-2 cells [3] = experiment: Probe fluorescence in Caco-2 cells after glutathione depletion by BSO; type: cell-based, human; conditions: Caco-2, glutathione depleted by progressive BSO exposure
Source text: To examine probe sensitivity to a less severe, more gradually provoked physiological oxidative stress within Caco-2 cells, cellular glutathione was depleted by progressive buthionine sulphoximine (BSO) exposure.

[4] = In vitro oxidation of KB861 solutions, analysed by fluorimetry; type: physicochemical
Procedure: A series of K5861 solutions (0.5, 1.0, and 1.5 μM) were prepared using THF. […] Another series of KB861 solutions of the same concentrations were prepared and analysed by fluorimetry in their natural unoxidised state (Graph 1).

Emission intensity [1]	λmax (nm) [1] [nm]	Fluorescence emission at 540 nm, natural unoxidised state ([4]; 0.5, 1.0, 1.5 μM in THF)	Fluorescence emission at 540 nm after oxidation ([4]; 0.5, 1.0, 1.5 μM in THF, oxidised by excess AgO)	Fluorescence on exposure to hydrogen peroxide ([4]; hydrogen peroxide as stated)	SMILES	Effect of menadione concentration on intracellular fluorescence (Caco-2 cells [2])	Decrease in fluorescence in stressed cells compared to healthy cells (Caco-2 cells [2]; 1 minute and 15 minutes)	Fluorescence in menadione exposed cultures relative to control non-stressed cultures (Caco-2 cells [2])	Fluorescence emission after BSO exposure (Caco-2 cells [3])	Decrease in fluorescence in stressed cells compared to healthy cells (Caco-2 cells [2]; 30 minutes)
17.419	499.5				O=c1c(O)c(-c2cc(O)c(O)c(O)c2)oc2cc(O)cc(O)c12 [Myricetin, 3,5,7-trihydroxy-2-(3,4,5-trihydroxyphenyl)-4H-1-benzopyran-4-one, reference compound]					
0.286	514.1				CCCCCCCCCCc1ccc2c(=O)c(O)c(-c3cc(O)c(O)cc3O)oc2c1 [AOX166]					
321.113	504.9				CCc1ccc2c(=O)c(O)c(-c3cc(O)c(O)c(O)c3)oc2c1 [KB474, 7-ethyl-3-hydroxy-2-(3,4,5-trihydroxyphenyl)-4H-1-benzopyran-4-one]	dose dependent decrease	at least 75%	dramatically decreased	striking decrease	
0.166	457.1				O=c1c(O)c(-c2ccc(O)c(O)c2O)oc2ccccc12 [AOX558]					
664.669	544.7	highly fluorescent	almost completely disappears	diminished	CCCCCCCCCCc1ccc2c(=O)c(O)c(-c3cc(O)c(O)c(O)c3)oc2c1 [KB861, 7-decyl-3-hydroxy-2-(3,4,5-trihydroxyphenyl)-4H-1-benzopyran-4-one]	correlated with the concentration of menadione exposure		dramatically decreased	striking decrease	30-40%
0.199	517.0				O=c1c(O)c(-c2cc(O)c(O)cc2O)oc2ccccc12 [AOX563]					

From patent publication US20100151508A1, “COMPOUNDS” (THE ROBERT GORDON UNIVERSITY, priority 2006, published 2010)
